According to BigSolDB 2.1:

CN=C(NC#N)NCCSCc1nc[nH]c1C
solubility (mole fraction)
Details | 281.04 K | 285.25 K | 289.65 K | 292.46 K | 296.7 K | 297.26 K | 306.76 K | 309.1 K | 311.34 K
in ethanol | – | – | – | – | – | 0.005 | 0.0081 | 0.0091 | 0.0101
in methanol | 0.0082 | 0.0098 | 0.0119 | 0.0138 | 0.0166 | – | – | – | –

CC(=O)Nc1ccc(O)cc1
Details | solubility (mole fraction)
in ethanol, 284.49 K | 0.0444
in ethanol, 288.38 K | 0.0471
in ethanol, 293.54 K | 0.0508
in ethanol, 295.69 K | 0.0539
in isopropanol, 273.5 K | 0.0256
in isopropanol, 289.99 K | 0.0372
in isopropanol, 302.5 K | 0.0473
in n-octanol, 262.78 K | 0.0057
in n-octanol, 275.42 K | 0.0082
in n-octanol, 285.72 K | 0.0104
in n-octanol, 301.15 K | 0.0151

CC(=O)Oc1ccccc1C(=O)O
Details | solubility (mole fraction)
in ethanol, 274.95 K | 0.0246
in ethanol, 292.45 K | 0.0487
in isopropanol, 274.9 K | 0.0163
in isopropanol, 281.7 K | 0.0223
in isopropanol, 283.75 K | 0.0245
in n-octanol, 272.14 K | 0.01
in n-octanol, 281.45 K | 0.0152
in n-octanol, 291.53 K | 0.0235
in n-octanol, 307.12 K | 0.0434
